Each block holds one compound with its values, some of them ahead of it.
Experiments:
PH domain of GRP [1] = molecular target: T1, PH domain of GRP (Mus musculus, UniProt O08967); experiment: Competition for [3H]dioctanoyl PtdIns(3,4,5)P3 binding to the PH domain of GRP; design: GST fused to the PH region of GRP (amino acids 239-399); made in house; host or cells: bacteria; conditions: dioctanoyl
T1 sequence (O08967 239-399): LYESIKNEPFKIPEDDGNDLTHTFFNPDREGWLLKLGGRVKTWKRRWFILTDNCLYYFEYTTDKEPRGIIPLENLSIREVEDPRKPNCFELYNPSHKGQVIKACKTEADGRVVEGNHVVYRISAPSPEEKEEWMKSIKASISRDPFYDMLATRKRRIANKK
Procedure: Binding assays were performed as described in (Rameh, L. E. et al., J. Biol. Chem., In Press). Briefly, GST fused to the PH region of GRP (amino acids 239-399) was bound to glutathione immobilized on agarose beads (Sigma). Synthetic [^3 H]-labeled diotanoyl PtdIns(3,4,5)P3 was added, and after one hour the beads were separated from the supernatant by centrifugation. The amount of [^3 H]-PtdIns(3,4,5)P3 bound to the PH domain was calculated by subtracting the amount of free [^3 H] present in supernatants from GST-GRP from the amount of free [^3 H] in supernatants from control GST. The data was fitted to the equation [bound]=Bmax×[free]/(KD + [free]) by least squares curve fit. For the competition assays the beads containing the GST-fusion proteins were incubated with 2.5 μM[^3 H]-labeled dioctanoyl PtdIns(3,4,5)P3 bound was calculated based on the amount of [^3 H] bound to the beads in the absence of competitor. The total [^3 H] bound to the GST control was less then 0.5% of the total [^3 H] bound to GRP PH domain. The data was fitted to the equation % bound=100-n×L/Klapp +L) where n is the % specific binding, L is the concentration of unlabeled lipid added and Klapp is the apparent competitive dissociation constant. The rations of the apparent dissociation constants accurately reflect the ratios of the true dissociation constants under the present experimental conditions (Rameh, L. E. et al., J. Biol. Chem., In Press).
The data depicted in FIG. 8 indicate that receptor signaling through PI3-kinases, which generates PtdIns(3,4,5)P3, may specifically regulate ARF proteins through GRP. In order to further test this, the relative binding affinities of PtdIns(3,4,5)P3 versus PtdIns (4,5)P2, which is constitutively present in cell membranes, for the PH domain of GRP were determined. A GST fusion protein of the PH domain of GRP was incubated with various concentrations of synthetic [^3 H]dioctanoyl PtdIns(3,4,5)P3 and binding was determined (FIG. 9A). These experiments show high affinity binding of this polyphosphoinositide,with a calculated Kd=0.5 μM.

[2] = tested on: receptor-regulated cell adhesion; conditions: cited from earlier work
PH domain of GRP [3] = molecular target: T1, PH domain of GRP; experiment: Binding specificity of the GRP PH domain for 32P-labeled phosphoinositides (GST-PH on nitrocellulose); design: species or system murine; conditions: GST-PH, 25,000 cpm lipid; relative to GST
Procedure: The 3'-phosphatidylinositol probes labeled at the 3' position were generated using GST-p110 PI3-kinase purified from recombinant bacculovirus infected Sf 9 cells, using either purified phosphatidylinositol phosphates or crude brain lipid. Briefly, 20 mg phospholipid in chloroform was dried under N2 and resuspended in […] of buffer containing Tris-HCl pH 7.4, EDTA 1 mM and incubated in […] phopsphorylation media containing 20 mM Tris-HCl pH 7.4, 100 mM NaCl, 10 mM MgCl2, 0.5 mM EGTA. 0.2 mM adenosine, GST-p110 and 5-10 mCi [g-^32 P]ATP (5 Ci/umol). The reaction was carried out for 2 h at room temperature, quenched by addition of 0.2 ml of 1M HCl, followed by 0.5 ml of chloroform:methanol (1:1). The organic phase containing phospholipids was washed 4 times with 0.4 ml of methanol:HCl (1: 1) and stored at -70° C. until use. Just before use, the lipid was dried under a stream of nitrogen with phosphatidyl serine corresponding to a final concentration of 20 mg/ml. The identities of the PI3-P, PI3,4-P2 and PI3,4,5-P3 were confirmed by TLC and HPLC analysis.
To generate the GST fusion proteins, PCR reactions using the primers: […] (SEQ ID NO:9) and […] (SEQ ID NO:10) for the GST-N construct, […] (SEQ ID NO:11) and […] (SEQ ID NO:12) for the GST-Sec7 construct, […] (SEQ ID NO:13) and […] (SEQ ID NO:14) for the GSTPH construct, and […] […] The filters were washed four times with 1 mL assay buffer and counted in a scintillation counter.
In order to determine whether PI(3,4,5)P3 binding could be localized to specific sequences within the GRP structure, GST fusion proteins containing either residues 239 to 399 (PH domain), residues 52 to 260 (Sec7 domain), or residues 5 to 71, full length GRP residues 5-399 were expressed in bacteria and purified on glutathione-conjugated beads. […] 150 pmol of the proteins were spotted on nitrocellulose filters, incubated with [^32 P]PI(3,4,5)P3 and the amount of bound lipid was determined as described. […] Nitrocellulose filters with GST-PH were incubated with 25,000 cpm of each of the phospholipids and the amount of bound lipid determined as described above. […]

[4] = molecular target: T2, proteins encoded by both brain and adipocyte cDNA clones (GRP) (Mus musculus, UniProt O08967); experiment: Binding of 32P-labeled phosphoinositides to protein of isolated cDNA clones on nitrocellulose filters (library screen); conditions: library screening conditions
T2 construct: lack four residues
T2 sequence (O08967 5-399): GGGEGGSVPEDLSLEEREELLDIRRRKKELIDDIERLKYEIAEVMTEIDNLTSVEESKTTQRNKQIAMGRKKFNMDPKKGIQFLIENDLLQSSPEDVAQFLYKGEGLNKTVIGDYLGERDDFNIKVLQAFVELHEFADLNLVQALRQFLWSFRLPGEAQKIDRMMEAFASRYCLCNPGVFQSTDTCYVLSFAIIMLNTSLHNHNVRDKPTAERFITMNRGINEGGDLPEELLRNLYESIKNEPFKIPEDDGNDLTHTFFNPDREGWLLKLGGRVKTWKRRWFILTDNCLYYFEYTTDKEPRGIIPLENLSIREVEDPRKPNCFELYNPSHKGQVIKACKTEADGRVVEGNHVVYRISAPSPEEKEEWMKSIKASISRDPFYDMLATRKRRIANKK

GRP = molecular target: T3, GRP (Mus musculus, UniProt O08967); experiment: Effect of phosphoinositides on GRP-catalyzed ARF1 guanine nucleotide exchange; format: biochemical; conditions: 25 μM lipid, 0.15 μM GRP
T3 construct: GST (N, cleaved yes); made in house; host or cells: GRP from pGEX-4T; ARF1 from baculovirus-infected Sf-9 cells
T3 sequence (O08967 1-399): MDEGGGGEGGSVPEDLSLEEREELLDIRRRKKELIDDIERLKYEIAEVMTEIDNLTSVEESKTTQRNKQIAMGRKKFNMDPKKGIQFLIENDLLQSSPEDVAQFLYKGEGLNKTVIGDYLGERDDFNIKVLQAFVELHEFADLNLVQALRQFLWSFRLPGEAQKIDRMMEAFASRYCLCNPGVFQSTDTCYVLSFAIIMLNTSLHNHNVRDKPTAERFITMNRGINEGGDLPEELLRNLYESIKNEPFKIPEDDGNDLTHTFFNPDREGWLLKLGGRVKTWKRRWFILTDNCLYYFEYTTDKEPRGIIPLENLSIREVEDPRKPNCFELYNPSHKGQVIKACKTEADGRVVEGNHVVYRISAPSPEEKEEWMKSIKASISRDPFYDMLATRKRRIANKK

apparent affinity lower than that for dioctanoyl PtdIns(3,4,5)P3 (PH domain of GRP [1]): about two orders of magnitude lower
Compound: CCCCCCCC(=O)OC[C@H](COP(=O)(O)O[C@@H]1[C@H](O)[C@H](O)[C@@H](OP(=O)(O)O)[C@H](OP(=O)(O)O)[C@H]1O)OC(=O)CCCCCCC [dioctanoyl PtdIns(4,5)P2]

Compound: COC[C@H]1OC(=O)c2coc3c2[C@@]1(C)C1=C(C3=O)[C@@H]2CCC(=O)[C@@]2(C)C[C@H]1OC(C)=O [wortmannin]
receptor-regulated cell adhesion [2]: inhibits receptor-regulated cell adhesion

Compound: PI(3)P
binding of labeled phosphoinositide to the GRP PH domain (PH domain of GRP [3]): failed to bind
binding of labeled phosphoinositide to the cDNA clone protein [4]: not

Compound: PtdIns(3,4)P2
binding of labeled phosphoinositide to the GRP PH domain (PH domain of GRP [3]): failed to bind
stimulation of ARF1 exchange activity in the presence of GRP (GRP; 0.05% cholate and 0.05% CHAPS (low negative charge)): little or no effect
stimulation of ARF1 exchange activity in the presence of GRP (GRP; 0.1% cholate (high negative charge)): stimulated
binding of labeled phosphoinositide to the cDNA clone protein [4]: not

Reference: patent publication US6194173A, “Binding proteins for phosphoinositides, GRP1 or general receptor 1 for phophoinositide” (priority 1999, dated 2001)
